According to ChEMBL document CHEMBL1201862, “PubChem BioAssay data set” (2004):
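Briefly, cells in 96-well plates were exposed to five compound concentrations for 48 h, and endpoints were estimated by linear interpolation. GI50 marks 50% less growth.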 Calls of active or inactive are those of the source. Cut-off read from the data, not from the text of the source: active = GI50 up to about 1.1 µM and inactive = higher.

Legend:
Experiment in all cases: NCI-60 cell line screen, 48 h
A549 = test system: A549
OVCAR-5 = test system: OVCAR-5
EKVX = test system: EKVX
MDA-MB-231 = test system: MDA-MB-231
NCI/ADR-RES = test system: NCI/ADR-RES
BT-549 = test system: BT-549
RXF 393 = test system: RXF 393
SK-MEL-2 = test system: SK-MEL-2
HT-29 = test system: HT-29
M14 = test system: M14
NCI-H23 = test system: NCI-H23
UACC-257 = test system: UACC-257
SN12C = test system: SN12C
A498 = test system: A498
Hs-578T = test system: Hs-578T
RPMI-8226 = test system: RPMI-8226
PC-3 = test system: PC-3
OVCAR-3 = test system: OVCAR-3
SK-OV-3 = test system: SK-OV-3
K562 = test system: K562
786-0 = test system: 786-0
UACC-62 = test system: UACC-62
U-251 = test system: U-251
IGROV-1 = test system: IGROV-1
MDA-MB-435 = test system: MDA-MB-435
MOLT-4 = test system: MOLT-4
SK-MEL-5 = test system: SK-MEL-5
OVCAR-4 = test system: OVCAR-4
SR = test system: SR
NCI-H226 = test system: NCI-H226
COLO 205 = test system: COLO 205
HOP-92 = test system: HOP-92
DU-145 = test system: DU-145
NCI-H522 = test system: NCI-H522
CCRF-CEM = test system: CCRF-CEM
HCT-15 = test system: HCT-15
SNB-75 = test system: SNB-75
SF-539 = test system: SF-539
UO-31 = test system: UO-31
ACHN = test system: ACHN
HCC 2998 = test system: HCC 2998
TK-10 = test system: TK-10
HOP-62 = test system: HOP-62
OVCAR-8 = test system: OVCAR-8
CAKI-1 = test system: CAKI-1
NCI-H460 = test system: NCI-H460
MCF7 = test system: MCF7
Malme-3M = test system: Malme-3M
SNB-19 = test system: SNB-19
MDA-N = test system: MDA-N
SW-620 = test system: SW-620
KM12 = test system: KM12
LOX IMVI = test system: LOX IMVI
SF-295 = test system: SF-295
HCT-116 = test system: HCT-116
SK-MEL-28 = test system: SK-MEL-28
SF-268 = test system: SF-268
HL-60 = test system: HL-60

Compound: C[n+]1c(-c2ccc(/C=N/Nc3ccnc(N/N=C/c4ccc(-c5cn6ccsc6[n+]5C)cc4)n3)cc2)cn2ccsc21
- GI50 (A549): 28.6 µM (inactive)
- GI50 (OVCAR-5): 19.1 µM (inactive)
- GI50 (EKVX): 18.8 µM (inactive)
- GI50 (MDA-MB-231): 32.7 µM (inactive)
- GI50 (NCI/ADR-RES): 39.7 µM (inactive)
- GI50 (BT-549): 36.1 µM (inactive)
- GI50 (RXF 393): 21.5 µM (inactive)
- GI50 (SK-MEL-2): 29.8 µM (inactive)
- GI50 (HT-29): 16.9 µM (inactive)
- GI50 (M14): 8.81 µM (inactive)
- GI50 (NCI-H23): 22.9 µM (inactive)
- GI50 (UACC-257): 25.5 µM (inactive)
- GI50 (SN12C): 31.5 µM (inactive)
- GI50 (A498): 27.9 µM (inactive)
- GI50 (Hs-578T): 69.5 µM (inactive)
- GI50 (RPMI-8226): 8.61 µM (inactive)
- GI50 (PC-3): 30.2 µM (inactive)
- GI50 (OVCAR-3): > 100 µM (inactive)
- GI50 (SK-OV-3): > 100 µM (inactive)
- GI50 (K562): 12.1 µM (inactive)
- GI50 (786-0): 15.8 µM (inactive)
- GI50 (UACC-62): 25.1 µM (inactive)
- GI50 (U-251): 30.9 µM (inactive)
- GI50 (IGROV-1): 19.1 µM (inactive)
- GI50 (MDA-MB-435): 4.57 µM (inactive)
- GI50 (MOLT-4): 17.8 µM (inactive)
- GI50 (SK-MEL-5): 19.3 µM (inactive)
- GI50 (OVCAR-4): 51.9 µM (inactive)
- GI50 (SR): 11.3 µM (inactive)
- GI50 (NCI-H226): 17.7 µM (inactive)
- GI50 (COLO 205): 35.4 µM (inactive)
- GI50 (HOP-92): 31.5 µM (inactive)
- GI50 (DU-145): 27.7 µM (inactive)
- GI50 (NCI-H522): 92.7 µM (inactive)
- GI50 (CCRF-CEM): 14.9 µM (inactive)
- GI50 (HCT-15): 27.5 µM
- GI50 (SNB-75): 20 µM (inactive)
- GI50 (SF-539): 27 µM (inactive)
- GI50 (UO-31): 18.8 µM (inactive)
- GI50 (ACHN): 23.9 µM (inactive)
- GI50 (HCC 2998): 31.6 µM (inactive)
- GI50 (TK-10): 25.8 µM (inactive)
- GI50 (HOP-62): 25.9 µM (inactive)
- GI50 (OVCAR-8): 28.9 µM (inactive)
- GI50 (CAKI-1): 18.5 µM (inactive)
- GI50 (NCI-H460): 16.9 µM (inactive)
- GI50 (MCF7): 48.4 µM (inactive)
- GI50 (Malme-3M): 29.9 µM (inactive)
- GI50 (SNB-19): 32.8 µM (inactive)
- GI50 (MDA-N): 3.94 µM (inactive)
- GI50 (SW-620): 33 µM (inactive)
- GI50 (KM12): 22.1 µM (inactive)

Compound: [N-]=[N+]=CC(=O)OC1CCOCC1
- GI50 (LOX IMVI): > 100 µM (inactive)
- GI50 (OVCAR-5): > 100 µM (inactive)
- GI50 (EKVX): > 100 µM (inactive)
- GI50 (MDA-MB-231): > 100 µM (inactive)
- GI50 (BT-549): > 100 µM (inactive)
- GI50 (RXF 393): > 100 µM (inactive)
- GI50 (SK-MEL-2): > 100 µM (inactive)
- GI50 (HT-29): > 100 µM (inactive)
- GI50 (NCI-H23): > 100 µM (inactive)
- GI50 (UACC-257): > 100 µM (inactive)
- GI50 (SF-295): > 100 µM (inactive)
- GI50 (SN12C): > 100 µM (inactive)
- GI50 (A498): > 100 µM (inactive)
- GI50 (RPMI-8226): > 100 µM (inactive)
- GI50 (PC-3): > 100 µM (inactive)
- GI50 (OVCAR-3): > 100 µM (inactive)
- GI50 (SK-OV-3): > 100 µM (inactive)
- GI50 (K562): > 100 µM (inactive)
- GI50 (786-0): > 100 µM (inactive)
- GI50 (UACC-62): > 100 µM (inactive)
- GI50 (HCT-116): > 100 µM (inactive)
- GI50 (U-251): > 100 µM (inactive)
- GI50 (IGROV-1): > 100 µM (inactive)
- GI50 (MDA-MB-435): > 100 µM (inactive)
- GI50 (SK-MEL-28): > 100 µM (inactive)
- GI50 (MOLT-4): > 100 µM (inactive)
- GI50 (SK-MEL-5): > 100 µM (inactive)
- GI50 (OVCAR-4): > 100 µM (inactive)
- GI50 (SR): > 100 µM (inactive)
- GI50 (NCI-H226): > 100 µM (inactive)
- GI50 (COLO 205): > 100 µM (inactive)
- GI50 (HOP-92): > 100 µM (inactive)
- GI50 (DU-145): > 100 µM (inactive)
- GI50 (NCI-H522): > 100 µM (inactive)
- GI50 (CCRF-CEM): > 100 µM (inactive)
- GI50 (HCT-15): > 100 µM
- GI50 (SF-268): > 100 µM (inactive)
- GI50 (UO-31): > 100 µM (inactive)
- GI50 (ACHN): > 100 µM (inactive)
- GI50 (HCC 2998): > 100 µM (inactive)
- GI50 (TK-10): > 100 µM (inactive)
- GI50 (HOP-62): > 100 µM (inactive)
- GI50 (CAKI-1): > 100 µM (inactive)
- GI50 (NCI-H460): > 100 µM (inactive)
- GI50 (HL-60): > 100 µM (inactive)
- GI50 (MCF7): > 100 µM (inactive)
- GI50 (Malme-3M): > 100 µM (inactive)
- GI50 (SNB-19): > 100 µM (inactive)
- GI50 (MDA-N): > 100 µM (inactive)
- GI50 (SW-620): > 100 µM (inactive)
- GI50 (KM12): > 100 µM (inactive)
